Assay results from patent US20200222418A1, “USE OF PHENOTHIAZINE DERIVATIVE IN THE TREATMENT OF INFECTION CAUSED BY BACTERIA CARRYING TYPE IV PILI” (priority 2017, published 2020).

Test system: N. meningitidis 2C4.3 isogenic derivative mutant PilT
Assay: Aggregation of PilT mutant in suspension (phase-contrast video microscopy)
Type: cell-based, Neisseria meningitidis
Conditions: 50 μM
Method: N. meningitidis 2C4.3 wild type strain and the isogenic derivative mutant PilT ([…]PiIT) were grown in liquid culture at 10^7 CFU/ml for 2 h to form bacterial aggregates and then treated with 50 μM Trifluoperazine. Time lapse phase-contrast video microscopy was performed to visualize the effect on bacterial aggregates over time. Images were taken at the indicated time points of the video.
N. meninigitidis 2C4.3 strain and the isogenic derivative mutant PilT, where the pilT gene was interrupted by an erythromycin-resistance cassette (Pujol et al., 1999), were grown in suspension in DMEM medium supplemented with 10% heat-inactivated fetal calf serum. PilT belongs to a highly conserved protein family homologous to AAA-type motor proteins and is proposed to cause the retraction of type IV pili by disassembling the pilin subunits at the base of the fiber (Morand et al., 2004). After 2 h of growth, Trifluoperazine (or control vehicle) was added at 50 μM for 20 min. The effect on bacterial aggregates were visualized over time using a phase-contrast microscope or the bacterial suspensions were fixed in 4% Paraformaldehyde for 10 min, centrifuged at 1000 rpm for 5 minutes and the bacterial pellets washed in PBS. After negative staining with 1% phosphotungstic acid, bacteria were analysed by transmission electron microscopy, using a JEOL 1011 microscope.

With `CN1CCN(CCCN2c3ccccc3Sc3ccc(C(F)(F)F)cc32)CC1` [Trifluoperazine] the “effect on aggregation of PilT mutant strain” value was “had no effect”.
